Blank lines part the entries; values can stand above or below the molecule they belong to.
How the values were obtained:
[1] = tested on: human melanoma cell lines (A375, Sk-Mel-28, wm3211); assay: Cytotoxicity by MTT colorimetric analysis in human melanoma cell lines; assay type: cell-based; details: read-out: Cytotoxicity (IC50 from 3 melanoma cell lines)
Protocol: Table 1. […] All the NOS isozymes used were recombinant enzymes overexpressed in E. coli. Ki values are calculated directly using known literature methods and detailed in co-PI R. Silverman's published manuscripts (17, 18, 64, 85). Cytotoxic effects of nNOS inhibitors in human melanoma were detected by MTT colorimetric analysis (85). The IC50 values are the average of at least two human melanoma cell lines.

[2] = tested on: A375 human melanoma xenograft; assay: A375 melanoma xenograft, HH044 20 mg/kg (Example 2)
[3] = tested on: PD-L1 in A375 melanoma cells; assay: Cell surface PD-L1 expression by flow cytometry; assay type: cell-based, human; details: for MFI of PD-L1 staining obtained via flow cytometry: IFN-γ alone or with MAC-3-190 (3 μM), 72-hour treatment; for cell surface expression of PD-L1: interferon alone, three cell lines
Protocol: FIG. 4. […] Three melanoma cell lines were treated with 250 units/mL of interferons for 48 hours. Whole cell lysates were collected and subjected to RPPA assay. […] Red, high expression; green, low expression. All the data points were normalized for protein loading and transformed to linear value. […] Cell surface expression of PD-L1 was determined by flow cytometry. Representative histograms out of two independent experimental replicates are shown. C) IFN-α or IFN-γ (100 Units/ml); D-E) IFN-α or IFN-γ (250 Units/ml).
Expression levels of PD-L1 detected by Flow Cytometry.

[4] = tested on: PD-L1 in A375 cells; assay: PD-L1 expression by immunofluorescence staining; assay type: cell-based, human; details: for extracellular expression of PD-L1: interferon alone, 250 Units/ml
Protocol: FIG. 5. Expression of PD-L1 in metastatic melanoma A375 cells detected by immunofluorescence staining. […]. Cells were then fixed and permeabilized with 4% formaldehyde and methanol. Samples were blocked in blocking buffer containing 5% horse serum for 1 hour. The slides were then allowed to incubate in a 1:50 PD-L1 antibody dilution overnight at 4° C. and DAPI reagent for 1 hour. Representative images are shown stained with PD-L1 antibody (green) and DAPI (blue fluorescence). (Original magnifications, 100×). Representative images for 2 experimental replicates are shown.
Expression levels of PD-L1 detected by Immunofluorescence. A375 cells were plated on coverslips and incubated with 250 units/mL of IFN-α or IFN-γ in the presence or absence of […] of nNOS inhibitors for 72 hours. After treatment, cells on coverslips were fixed with 4% formaldehyde/PBS for 15 minutes at room temperature, followed by incubation with ice-cold 100% methanol for 10 minutes at −20° C. Samples were then incubated in blocking buffer (1×PBS, 5% horse serum, 0.3% Triton X-100) for 60 minutes, then in a 1:50 PD-L1 antibody dilution in dilution buffer (1×PBS, 1% BSA, 0.3% Triton X-100) overnight at 4° C. Stained specimens were rinsed with PBS then cured in the dark with DAPI fluorescence staining reagent for 1 hour. Slides were visualized and recorded using the BZ-X700 microscope (Keyence, Itasca, IL).

[5] = tested on: Human A375 metastatic melanoma xenograft; assay: A375 melanoma xenograft, IFN-γ with or without MAC-3-190; assay type: in vivo, nude mice; details: for PD-L1-positive staining in xenograft tumors (immunohistochemistry): 21-day treatment, IFN-γ 1000 units per mouse i.p. daily, with or without MAC-3-190 5 mg/kg/day
Protocol: FIG. 6. […] Data was represented as mean±SD.
FIG. 7. Expression of PD-L1 in xenograft tumor samples obtained from the subject is administered an inhibitor of NOS and further is administered study detected by immunohistochemistry staining. PD-L1 staining (brown) of specimens at 100× (A) and 20× (B) magnification. […] . PD-L1 (C) and CD8 (D) stained specimens captured at 2× magnification.
In Vivo Xenograft Melanoma. […] .

[6] = tested on: A375 cells; assay: Cytotoxicity in A375 cells; assay type: cell-based, human
[7] = tested on: Sk-mel-28 cells; assay: Cytotoxicity in Sk-mel-28 cells; assay type: cell-based, human
[8] = tested on: WM115, Sk-mel-28 and A375; assay: Reverse Phase Protein Array in three human melanoma cell lines; assay type: cell-based; details: 250 units/mL interferon; for PD-L1 expression level (RPPA): average of three cell lines
Protocol: FIG. 4. A) Heat map of Reverse Phase Protein Array (RPPA) showing distinct effects of IFN-α and IFN-γ on protein expression levels in three human melanoma cell lines (WM115, Sk-mel-28 and A375). Three melanoma cell lines were treated with 250 units/mL of interferons for 48 hours. Whole cell lysates were collected and subjected to RPPA assay. […] Red, high expression; green, low expression. All the data points were normalized for protein loading and transformed to linear value. […] Average changes of three cell lines detected by RPPA were shown in the figure. *, p<0.05 in comparison to control and IFN-α. C-E) Induction of PD-L1 by IFN-γ was diminished by the co-treatment of nNOS inhibitors. […]. Cell surface expression of PD-L1 was determined by flow cytometry. Representative histograms out of two independent experimental replicates are shown. C) IFN-α or IFN-γ (100 Units/ml); D-E) IFN-α or IFN-γ (250 Units/ml).
Reverse Phase Protein Array. Plated cells were treated with 250 units/mL of IFN-α or IFN-γ for […]. After washing with 1×PBS, lysis buffer (1% Triton X-100, 50 mM HEPES, pH 7.4, 150 mM NaCl, 1.5 mM MgCl2, 1 mM EGTA, 100 mM NaF, 10 mM Na pyrophosphate, 1 mM Na3VO4, 10% glycerol and 1% PIC) was added to the plates, followed by incubation on ice for 20 minutes with occasional shaking. Samples were then collected via scraping and spun down at 14,000 g^−1 for 10 minutes at 4° C. The protein concentration was then quantified by Bradford method and adjusted to 1.5 μg/μL with lysis buffer. Cell lysates were then mixed with 4×SDS sample buffer (40% glycerol, 8% SDS, 0.25M Tris-HCl, pH 6.8 with 10% BME). Miniscule amounts of serially diluted protein samples were then dotted on a nitrocellulose coated slide and probed with validated primary antibodies and a biotin-conjugated secondary antibody. The signals were amplified using Dako-Cytomation-Catalyzed system (Dako) and visualized by diaminobenzidine (DAB) colorimetric reaction. Dilution curves were fitted with Supercurve Fitting and the protein expressions normalized for protein loading.

[9] = tested on: STAT1; assay: Western blot of STAT1 in A375 cells; assay type: cell-based, human; details: interferon alone
Protocol: (§1) FIG. 3. […] A375 cells were treated with 100 units/mL and 250 units/mL of IFN-γ or IFN-α for 24 hours; whole cell lysates and nuclear extracts were used for Western blot analysis to detect STAT3 and pSTAT3 respectively. […] Protein isolation and Western blotting. All samples were kept at 4° C. unless otherwise noted.
(§2) The membranes were blocked using 10% non-fat milk (NOS1, STAT1/2, Actin, Lamin A/C) or 5% bovine serum albumin (BSA; SH3057402; Fisher Scientific, Waltham, MA) (p-STAT1/3), then incubated with primary antibodies for 1 hour at room temperature or overnight at 4° C., followed by secondary antibodies for 1 hour at room temperature as recommended by the manufacturer. Blots were washed extensively with TBS-T after each antibody incubation.

[10] = tested on: intracellular NO in melanoma cells; assay: Intracellular nitric oxide levels, DAF-FM fluorescence probe; assay type: cell-based, human; details: DAF-FM probe after interferon exposure
Protocol: (§3) FIG. 2. A-C) Effects of IFN-α and IFN-γ treatment on nNOS expression levels in human primary melanoma WM3211 cells (A-B) and metastatic melanoma A375 cells. C) Distinct effects of IFN-α and IFN-γ on nNOS expression of A375 metastatic melanoma cells. A375 cells were treated with 500 units/mL of IFN-α or IFN-γ for 48 hours and whole cell lysates were collected. Samples were subjected to Western blot analysis for nNOS. A control of the protein loading was performed by detecting actin. D) Intracellular nitric oxide levels detected by microplate reader using DAF-FM fluorescence probe after IFN-α or IFN-γ treatment for 24 hours. E) IFN-γ-inducible nNOS expression was abrogated in nNOS-depleted melanoma cells. A375 cells transfected with shRNA-nNOS were treated with IFN-γ for 24 hours, followed by Western blot analysis.
Detection of intracellular nitric oxide levels. Cultured cells in a 96-well plate were treated with 100 units/mL of IFN-α or IFN-γ for 48 hours. Once the incubation period was complete, the media was removed and replaced with Hank's Balanced Salt Solution (HBSS). 1 μM of 4-Amino-5-methylamino-2′,7′-difluorofluorescein (DAF-FM) probe was added to each condition and fluorescence levels produced by DAF-FM were detected using a fluorescence microplate reader with excitation and emission wavelengths of 485 and 538 nm, respectively.

[11] = tested on: nNOS expression in WM3211 cells; assay: Western blot of nNOS expression in primary melanoma WM3211 cells; assay type: cell-based, human; details: IFN-γ persisted after 96 hours, IFN-α within 4 hours, recovered by 24 hours
Protocol: as §3
Protein isolation and Western blotting. All samples were kept at 4° C. unless otherwise noted. […]
Equal amounts of protein, as detected by Bradford assay, were loaded and resolved on 7.5% SDS-polyacrylamide gels, then transferred to Immobilon-P^SQ polyvinylidene difluoride (PVDF) membranes (ISEQ00010; Merck KGaA, Darmstadt, Germany). […] Labeled bands were detected using SuperSignal horseradish peroxidase chemiluminescence reagents (1859674; 1859675; Thermo Fisher Scientific, Waltham, MA) and images were captured and analyzed using the Bio-Rad ChemiDoc XRS^+ System.

[12] = tested on: STAT3; assay: Western blot of STAT3 and phospho-STAT3 in A375 cells; assay type: cell-based, human; details: A375 cells exposed to interferon, 24 hours
Protocol: as §1
Nuclear and cytosolic protein extraction is described elsewhere (84). Cells were collected via centrifugation and re-suspended in buffer A (10 mM HEPES, pH 7.9, 10 mM KCl, 0.150 mM MgCl2, 0.5 mM DTT, 0.2 mM PMSF) with 1% PIC and allowed to swell for 10 minutes. 10% NP-40 was added and vortexed to lyse the cells. […] Buffer D (20 mM HEPES, 20% glycerol, 50 mM KCl, 0.5 mM EDTA, 0.5 mM DTT, and 0.2 mM PMSF) was then added to dilute the nuclear sample.
as §2

[13] = tested on: A375 metastatic melanoma cells; assay: Matrigel invasion assay; assay type: cell-based, human; details: compared to control, p<0.05
Protocol: (§4) FIG. 1. A) Effect of IFN-γ on melanoma invasion potential detected by matrigel invasion assay. The represented data were from A375 metastatic melanoma cells treated with IFN-γ. *, p<0.05 compared to control. B) Adhesion analysis. A375 melanoma cells were seeded on top of fibroblast monolayer and incubated with IFN-γ for 1 hour, followed by MTT assay. *, p<0.05 compared to control.

[14] = tested on: A375 melanoma cells; assay: Adhesion of melanoma cells to fibroblast monolayer; assay type: cell-based, human; details: incubated 1 hour, MTT assay
Protocol: as §4

lung, liver, and kidney weights ([2]; 20 mg/kg/day for 21 days): no significant changes
Molecule: N=C(Nc1ccc(CCNCc2cccc(NC(=N)c3cccs3)c2)cc1)c1cccs1 [HH044]
IC50 [1]: 5.27 ± 3.3 µM
body weight ([2]; 20 mg/kg/day for 21 days, 23.9 g in control group): 22.6 g
reduction in body weight ([2]; 20 mg/kg/day, not statistically significant (p>0.05)): < 10%

Molecule: CNCc1cccc(CCc2ccc3c(C)cc(N)nc3c2)c1 [MAC-3-190]
MFI of PD-L1 staining obtained via flow cytometry ([3]; A375 cells): 1.9 folds of control
Induction of PD-L1 by IFN-γ, cell surface expression ([3]; A375 cells, co-treatment with nNOS inhibitor 3 μM, 72 hours): diminished
IFN-γ-inducible PD-L1 expression ([4]; co-treatment with 3 μM, IFN-γ 250 Units/ml, 72 hours): significantly diminished
basal level of PD-L1 ([4]; treatment with inhibitor alone, compared to control): did not alter
PD-L1 expression in xenograft tumors ([5]; 10 mg/kg/day): significantly reduced
PD-L1-positive staining in xenograft tumors (immunohistochemistry) [5]: > 15%
induction in tumor volume by IFN-γ, end of study ([5]; co-treatment, 5 mg/kg subcutaneously injected daily, p<0.05 compared to IFN-γ treatment): effectively diminished

Molecule: N.N.[Cl][Pt][Cl] [cisplatin]
IC50 [6]: 4.2 µM
IC50 [7]: 14.3 µM

Molecule: IFN-α
cell surface expression of PD-L1 [3]: reduced
PD-L1 expression level (RPPA) [8]: absent
extracellular expression of PD-L1 ([4]; 72 hours): low basal expression
expression of STAT1 [9]: increase
intracellular NO levels [10]: significantly decreased
nNOS expression levels [11]: undetectable levels

B1: IFN-γ: Interferon-gamma, purchased from Invitrogen (protein, UniProt P01579 24-161, looked up)
Interferon gamma: QDPYVKEAENLKKYFNAGHSDVADNGTLFLGILKNWKEESDRKIMQSQIVSFYFKLFKNFKDDQSIQKSVETIKEDMNVKFFNSNKKKRDDFEKLTNYSVTDLNVQRKAIHELIQVMAELSPAAKTGKRKRSQMLFRG
MFI of PD-L1 staining obtained via flow cytometry ([3]; A375 cells): 3.3 folds of control
cell surface expression of PD-L1 [3]: increased
c-Myc and HIF-1α expression levels (RPPA) [8]: Increased
PD-L1 expression level (RPPA) [8]: 1.8 fold of control
extracellular expression of PD-L1 ([4]; 72 hours): markedly induced
PD-L1-positive staining in xenograft tumors (immunohistochemistry) [5]: > 20%
tumor growth in vivo ([5]; IFN-γ 1000 units/day, 21 days): significantly stimulated
expression of STAT1 [9]: higher induction
intracellular NO levels [10]: elevated
Phospho-STAT3 levels [12]: 1.9 folds of control
expression levels of STAT3 [12]: 1.6 folds of control
melanoma invasion potential [13]: significantly enhanced
nNOS expression levels [11]: markedly induced
adhesion capacity of melanoma cells to fibroblast cells [14]: significantly enhanced

Reference: US12083113B2, “Use of neuronal nitric oxide synthase inhibitors for immunotherapy in melanoma patients” (Northwestern University, priority 2018, dated 2024)
